From patent publication US20240316047A1, “INHIBITORS OF RNA HELICASE DHX9 AND USES THEREOF” (ACCENT THERAPEUTICS, INC., priority 2022, published 2024)

Biological target: Human recombinant DHX9 protein (Homo sapiens (Human), UniProt Q08211)
Test: DHX9 ATPase assay (ADP-Glo)
Format: biochemical
Details: for IC50: read-out: DHX9 Biochemical Inflection Point

Human recombinant DHX9 protein, sequence (Q08211 whole entry): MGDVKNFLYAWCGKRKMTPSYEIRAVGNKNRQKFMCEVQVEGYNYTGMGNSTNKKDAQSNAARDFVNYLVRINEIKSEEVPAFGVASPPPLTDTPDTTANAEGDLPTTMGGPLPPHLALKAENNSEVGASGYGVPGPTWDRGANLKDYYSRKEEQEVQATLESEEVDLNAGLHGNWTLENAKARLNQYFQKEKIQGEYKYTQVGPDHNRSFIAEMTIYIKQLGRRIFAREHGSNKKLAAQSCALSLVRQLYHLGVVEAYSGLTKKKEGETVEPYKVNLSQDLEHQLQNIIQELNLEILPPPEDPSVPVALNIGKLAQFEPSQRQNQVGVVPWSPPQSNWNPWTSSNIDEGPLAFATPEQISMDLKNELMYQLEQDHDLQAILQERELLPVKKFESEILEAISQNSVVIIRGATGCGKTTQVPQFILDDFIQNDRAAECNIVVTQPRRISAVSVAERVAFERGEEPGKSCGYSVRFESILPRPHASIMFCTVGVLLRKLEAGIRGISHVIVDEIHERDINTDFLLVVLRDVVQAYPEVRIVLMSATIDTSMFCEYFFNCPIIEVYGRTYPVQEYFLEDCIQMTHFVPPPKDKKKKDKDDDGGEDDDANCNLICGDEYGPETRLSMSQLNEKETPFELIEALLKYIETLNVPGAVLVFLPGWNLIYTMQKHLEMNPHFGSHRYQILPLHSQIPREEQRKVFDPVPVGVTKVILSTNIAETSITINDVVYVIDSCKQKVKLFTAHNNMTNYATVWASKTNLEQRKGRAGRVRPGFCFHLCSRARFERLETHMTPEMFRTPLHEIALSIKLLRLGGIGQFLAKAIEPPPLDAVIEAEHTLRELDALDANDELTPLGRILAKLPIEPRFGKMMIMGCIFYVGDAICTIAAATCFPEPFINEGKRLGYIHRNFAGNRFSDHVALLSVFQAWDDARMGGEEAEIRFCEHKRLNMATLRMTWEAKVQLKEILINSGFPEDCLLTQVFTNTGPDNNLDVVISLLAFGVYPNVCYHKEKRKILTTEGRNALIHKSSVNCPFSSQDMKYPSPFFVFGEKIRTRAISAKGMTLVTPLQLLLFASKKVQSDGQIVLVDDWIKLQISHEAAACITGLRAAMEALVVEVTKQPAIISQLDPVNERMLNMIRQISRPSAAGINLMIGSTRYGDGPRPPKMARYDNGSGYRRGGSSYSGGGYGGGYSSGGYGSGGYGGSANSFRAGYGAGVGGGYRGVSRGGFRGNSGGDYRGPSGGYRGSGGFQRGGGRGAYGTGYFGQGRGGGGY

SMILES | DHX9 Biochemical Max Inhibition | IC50
Cc1sc(C(=O)Nc2cc(Cl)cc(NS(C)(=O)=O)c2)cc1-c1ncc(OC(F)F)cn1 [Example 345] | 77.1% | 33.6 nM
Cn1nc(-c2ccccc2OCc2ccccc2)cc1C(=O)Nc1cc(Cl)cc(NS(C)(=O)=O)c1 [Example 139] | 59.1% | 6650 nM
Cc1cc(C(=O)Nc2cc(Cl)cc(NS(C)(=O)=O)c2)cn1-c1ncc(OC(C)(C)C)cc1F [Example 662] | 66.1 | 68 nM
CCn1cc(C(=O)Nc2cc(Cl)cc(NS(C)(=O)=O)c2)cc1-c1ccc(N2CCOCC2)cn1 [Example 274] | 72.1% | 32.2 nM
Cc1sc(C(=O)Nc2cc(Cl)cc(NS(C)(=O)=O)c2)cc1-c1ncc(OC2CCC2)cn1 [Example 452] | 80.5 | 32.9 nM
COc1cnc(-c2csc(C(=O)Nc3cc(Cl)cc(NS(C)(=O)=O)c3)c2)nc1 [Example 340] | 65.6% | 
COc1cnc(-c2cc(C(=O)Nc3cc(Cl)cc(NS(C)(=O)=O)c3)cn2CC(F)(F)F)nc1 [Example 563] | 66.9 | 71.3 nM
CS(=O)(=O)Nc1cc(Cl)cc(NC(=O)c2cnn(-c3ncccc3C#N)c2)c1 [Example 46] | 57.2% | 47.3 nM
CCS(=O)(=O)Nc1cc(Cl)cc(NC(=O)c2cc(-c3ncc(OC(C)(C)C)cn3)c(C)s2)c1 [Example 566] | 66 | 186 nM
Cn1cc(C(=O)Nc2cc(Cl)cc(NS(C)(=O)=O)c2)cc1Br [Example 83, 5-bromo-N-(3-chloro-5-(methylsulfonamido)phenyl)-1-methyl-1H-pyrrole-3-carboxamide] | 60.7% | 47.8 nM
Cn1cc(C(=O)Nc2cc(Cl)cc(NS(C)(=O)=O)c2)cc1-c1ccc(N2CCC(F)(F)C2)cn1 [Example 527] | 65.3 | 42.4 nM
Cc1cccnc1-c1ccc(C(=O)Nc2cc(Cl)cc(NS(C)(=O)=O)c2)s1 [Example 386] | 59.2% | 420 nM
Cc1sc(C(=O)Nc2cc(Cl)cc(NS(C)(=O)=O)c2)cc1-c1ccc(OC(C)(C)C)cn1 [Example 380] | 68.7% | 33.5 nM
Cn1cc(C(=O)Nc2cc(Cl)cc(NS(C)(=O)=O)c2)nc1-c1ccccc1 [Example 155, N-(3-chloro-5-(methylsulfonamido)phenyl)-1-methyl-2-phenyl-1H-imidazole-4-carboxamide] | 66.4% | 126 nM
Cc1sc(C(=O)Nc2cc(Cl)cc(NS(C)(=O)=O)c2)cc1-c1cn(-c2ccccc2)nn1 [Example 236] | 68.9% | 52.1 nM
Cc1sc(C(=O)Nc2cc(Cl)cc(NS(=O)(=O)CCO)c2)cc1-c1ncc(N2CC(C(F)(F)F)C2)cc1F [Example 529] | 57.3 | 163 nM

SMILES | DHX9 Biochemical Max Inhibition | IC50
Cc1sc(C(=O)Nc2cc(Cl)cc(NS(C)(=O)=O)c2)cc1-c1ncc(N2CC3C(C2)C3(C)C)cc1F (centres unmarked) [Example 476] | 61.1 | 312 nM
Cn1nc(-c2ccccn2)cc1C(=O)Nc1cc(Cl)cc(NS(C)(=O)=O)c1 [Example 141] | 54.9% | 442 nM
Cc1cc(N2CCC(F)(F)CC2)cnc1-c1cc(C(=O)Nc2cc(Cl)cc(NS(C)(=O)=O)c2)cn1C [Example 600] | 79.3 | 41.6 nM
CCOc1cnc(-c2csc(C(=O)Nc3cc(Cl)cc(NS(C)(=O)=O)c3)c2)nc1 [Example 342] | 73.6% | 33.1 nM
COc1cnc(-c2cc(C(=O)Nc3cc(Cl)cc(NS(C)(=O)=O)c3)sc2C)c(F)c1 [Example 358] | 84.3% | 38.4 nM
Cc1sc(C(=O)Nc2cc(Cl)cc(NS(C)(=O)=O)c2)cc1-c1ncc(C(F)(F)F)cc1C#N [Example 367] | 63.5% | 55.9 nM
CCS(=O)(=O)Nc1cc(Cl)cc(NC(=O)c2cc(-c3ncc(F)cn3)cs2)c1 [Example 343] | 54.4% | 55.2 nM
CS(=O)(=O)Nc1cc(Cl)cc(NC(=O)c2cnn([C@H]3CCC[C@H]3Oc3ccccc3)c2)c1 (single isomer, unassigned) [Example 259] | 69.2% | 
Cc1cc(C(=O)Nc2cc(Cl)cc(NS(C)(=O)=O)c2)cn1-c1ccc(C#N)cn1 [Example 425] | 90 | 55.5 nM
Cc1sc(C(=O)Nc2cc(Cl)cc(NS(C)(=O)=O)c2)cc1-c1ncc(S(C)(=O)=O)cn1 [Example 711] | 69.3 | 32.1 nM
Cc1cccnc1-c1cc(C(=O)Nc2cc(F)cc(NS(C)(=O)=O)c2)sc1C [Example 333] | 78.1% | 35.1 nM
CS(=O)(=O)Nc1cc(Cl)cc(NC(=O)c2cnn([C@H]3CCC[C@@H](O)C3)c2)c1 (single isomer, unassigned) [Example 152b] | 69.9% | 126 nM
CS(=O)(=O)Nc1cc(Cl)cc(NC(=O)c2cc3c(C(F)(F)F)cccn3c2)c1 [Example 302] | 54.6% | 640 nM
CS(=O)(=O)Nc1cc(Cl)cc(NC(=O)c2cccc(-c3ccncc3)c2)c1 [Example 14] | 59.6% | 353 nM
Cc1cc(F)cnc1-c1cc(C(=O)Nc2cc(Cl)cc(NS(C)(=O)=O)c2)sc1C [Example 348] | 74.6% | 31.8 nM

Results, then the compound that gave them:

DHX9 Biochemical Max Inhibition | IC50 | SMILES
80.1 | 10.9 nM | Cn1cc(C(=O)Nc2cc(Cl)cc(NS(C)(=O)=O)c2)cc1-c1ccc(N2CCN(C(=O)C3CC3)CC2)cn1 [Example 594]
72.7 | 3 nM | Cc1sc(C(=O)Nc2cc(Cl)cc(NS(C)(=O)=O)c2)cc1-c1ncc(OC2CN(C)C2)cn1 [Example 609, N-(3-chloro-5-methanesulfonamidophenyl)-5-methyl-4-{5-[(1-methylazetidin-3-yl)oxy]pyrimidin-2-yl}thiophene-2-carboxamide]
82.9 | 5 nM | COc1cnc(-c2cc(C(=O)Nc3cc(Cl)cc(NS(C)(=O)=O)c3)cn2C)c(F)c1 [Example 454]
58.7 | 20.2 nM | CC(C)Oc1cnc(-c2csc(C(=O)Nc3cc(Cl)cc(NS(C)(=O)=O)c3)c2)nc1 [Example 457]
72.3% | 27.2 nM | CS(=O)(=O)Nc1cc(Cl)cc(NC(=O)c2cnn(-c3ncccc3OCc3cccc(O)c3)c2)c1 [Example 179]
77.1 | 6.6 nM | Cc1cc(C(=O)Nc2cc(Cl)cc(NS(C)(=O)=O)c2)cn1-c1ccc(N2CC(F)C2)cn1 [Example 395]
70.3 | 10.6 nM | Cc1cc(C(=O)Nc2cc(Cl)cc(NS(C)(=O)=O)c2)cn1-c1ncc(N2CCCC2=O)cn1 [Example 401]
65.2 | 31.6 nM | Cn1cc(C(=O)Nc2cc(Cl)cc(NS(C)(=O)=O)c2)cc1-c1ccc(N2CC(C(F)(F)F)C2)cn1 [Example 497]
72.6 | 26.5 nM | COc1cnc(-n2cc(C(=O)Nc3cc(Cl)cc(NS(C)(=O)=O)c3)cc2C)nc1 [Example 441]
73.1% | 9.4 nM | Cn1cc(C(=O)Nc2cc(Cl)cc(NS(C)(=O)=O)c2)cc1-c1ncc(F)cc1OCc1cnco1 [Example 268]
71% | 10.7 nM | CCOc1ccc(-c2csc(C(=O)Nc3cc(Cl)cc(NS(C)(=O)=O)c3)c2)nc1 [Example 339]
74.8 | 5.7 nM | COC(=O)N1CCN(c2cnc(-c3cc(C(=O)Nc4cc(Cl)cc(NS(C)(=O)=O)c4)cn3C)c(F)c2)CC1 [Example 464]
61.5 | 18.7 nM | Cc1sc(C(=O)Nc2cc(Cl)cc(NS(C)(=O)=O)c2)cc1-n1cc(F)cn1 [Example 439]
73.3 | 11.2 nM | CCOc1ccc(-c2cc(C(=O)Nc3cc(Cl)cc(NS(C)(=O)=O)c3)cn2C)nc1 [Example 572]
65.8% | 11.1 nM | CN1CCN(c2cnc(-n3cc(C(=O)Nc4cc(Cl)cc(NS(C)(=O)=O)c4)cn3)c(OCc3cccnc3)c2)CC1=O [Example 193]
65.6% | 1.8 nM | CS(=O)(=O)Nc1cc(Cl)cc(NC(=O)c2cc(-c3ncccn3)cs2)c1 [Example 26]
72.9% | 22.9 nM | CN(c1ncccn1)c1cccnc1-c1csc(C(=O)Nc2cc(Cl)cc(NS(C)(=O)=O)c2)c1 [Example 238]
66.5 | 19.1 nM | Cc1sc(C(=O)Nc2cc(Cl)cc(NS(C)(=O)=O)c2)cc1-c1ccc(N2CCC(F)(F)C2)cn1 [Example 485]
69.8 | 21.4 nM | Cn1cc(C(=O)Nc2cc(Cl)cc(NS(C)(=O)=O)c2)cc1-c1ccc(C#N)cn1 [Example 570]
63 | 20.8 nM | Cc1cc(N2CC(F)(F)C2)cnc1-c1cc(C(=O)Nc2cc(Cl)cc(NS(C)(=O)=O)c2)sc1C [Example 537]
95 | 17.7 nM | Cc1cc(C(=O)Nc2cc(Cl)cc(NS(C)(=O)=O)c2)cn1-c1ncc(N2CC(F)(F)C2)cc1F [Example 420]
88.7 | 19.2 nM | Cn1cc(C(=O)Nc2cc(Cl)cc(NS(C)(=O)=O)c2)cc1-c1ncc(N2CC(F)(F)C2)cc1F [Example 599]
64.3% | 6.8 nM | CS(=O)(=O)Nc1cc(Cl)cc(NC(=O)c2cnn(-c3ncc(N4CCOCC4)cc3OCc3cccnc3)c2)c1 [Example 194]
68.1 | 28.5 nM | Cn1cc(C(=O)Nc2cc(Cl)cc(NS(C)(=O)=O)c2)cc1-c1ccc(Cl)cn1 [Example 576]
68.3% | 4.2 nM | CCS(=O)(=O)Nc1cc(Cl)cc(NC(=O)c2cc(-c3ccccn3)c(C)s2)c1 [Example 28]
